Data set [1] in a line: AUC in rat at 15 umole/kg, po. The settings on record: plasma. Format: ADME, organism-based.
The nature of data set [2]: Cmax in rat at 15 umole/kg, po. Format: ADME, organism-based. Further details: route oral. The settings on record: in vivo.
Data set [3] in a line: Oral bioavailability in rat at 15 umole/kg. In kind it is ADME, organism-based. To be noted: in vivo.
Data set [4] is described as follows: Tmax in rat at 15 umole/kg, po. Format: ADME, organism-based. The settings on record: in vivo.
The next data set deals with Rattus norvegicus. As to the kind of experiment: Increase in GH level in acute anesthetized rat at 1.74 umol/kg, iv after 15min relative to control. Format: functional.
Data set [5] in a line: AUC in rat at 5 umole/kg, iv. The settings on record: plasma. Format: ADME, organism-based.
Data set [6] is described as follows: Clearance in rat at 5 umole/kg, iv. The settings on record: in vivo. In kind it is ADME, organism-based.
Data set [7] can be described thus: Volume of distribution at steady state in rat at 5 umole/kg, iv. In kind it is ADME, organism-based. The settings on record: in vivo, read-out: Vdss.
A short description of data set [8]: Half life in rat at 5 umole/kg, iv. Format: ADME, organism-based. To be noted: in vivo.
Data set [9] in a line: Mean residence time in rat at 5 umole/kg, iv. Format: ADME, organism-based. The settings on record: in vivo.
The nature of data set [10]: Tmax in rat at 10 umole/kg, po. The settings on record: in vivo. Format: ADME, organism-based.
Data set [11] can be described thus: Oral bioavailability in rat at 10 umole/kg. In kind it is ADME, organism-based. The settings on record: in vivo.
Data set [12] in a line: Volume of distribution at steady state in rat at 10 umole/kg, iv. Format: ADME, organism-based. The settings on record: in vivo, read-out: Vdss.
Data set [13] is described as follows: Cmax in rat at 10 umole/kg, po. In kind it is ADME, organism-based. Further details: route oral. To be noted: in vivo.
A short description of data set [14]: Mean residence time in rat at 10 umole/kg, iv. Format: ADME, organism-based. The settings on record: in vivo.
Data set [15] in a line: Half life in rat at 10 umole/kg, iv. Format: ADME, organism-based. The settings on record: in vivo, read-out: AUC (converted).
A short description of data set [16]: AUC in rat at 10 umole/kg, iv. Format: ADME, organism-based. To be noted: plasma.
A short description of data set [17]: AUC in rat at 10 umole/kg, po. Format: ADME, organism-based. The settings on record: plasma.
A short description of data set [18]: Clearance in rat at 10 umole/kg, iv. In kind it is ADME, organism-based. To be noted: in vivo.
Data set [19] addresses Growth hormone secretagogue receptor type 1 (Homo sapiens, UniProt Q92847). As to the kind of experiment: Agonist activity at GHS receptor. Format: functional.

The structures appear in SMILES notation.

Broadly, the AUC is concentration integrated over time. Low values mean less exposure, high ones more exposure. For orientation: Cmax means the maximum level reached in the sampled fluid or tissue. The term bioavailability denotes dose-corrected exposure relative to a reference, in per cent. The term Tmax denotes the time from dosing to the highest level. Usually clearance stands for the rate of elimination divided by the concentration. The low end stands for inefficient removal, the high end for efficient removal. As usually defined, the MRT is a mean duration of stay, worked out from the concentration-time curve. In general, EC50 refers to the concentration needed to bring the measured effect to its halfway point.

Chain of Growth hormone secretagogue receptor type 1 (Q92847 whole entry): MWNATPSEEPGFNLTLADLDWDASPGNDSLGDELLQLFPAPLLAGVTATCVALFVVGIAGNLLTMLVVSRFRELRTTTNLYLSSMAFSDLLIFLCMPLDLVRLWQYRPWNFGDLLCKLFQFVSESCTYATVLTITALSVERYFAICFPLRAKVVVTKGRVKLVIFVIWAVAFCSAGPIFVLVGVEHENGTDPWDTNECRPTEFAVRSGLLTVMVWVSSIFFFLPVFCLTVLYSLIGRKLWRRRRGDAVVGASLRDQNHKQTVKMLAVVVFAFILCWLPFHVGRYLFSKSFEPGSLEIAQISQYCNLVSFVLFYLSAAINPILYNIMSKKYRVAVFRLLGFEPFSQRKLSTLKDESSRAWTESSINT

As to `CC(C)(N)C(=O)N[C@H](COCc1ccccc1)c1nnnn1CCOC(=O)NCCCCO`, the AUC was 0.11 µM·h in [1] and 0.401 µM·h in [5]. For the same compound, in [2], the Cmax was determined as 68 nM. In [3], the bioavailability came out at 9.2%. Also, in data set [4], the Tmax came out at 42 min. Further, in the data set with Rattus norvegicus, the Activity stood at 750%. For the same compound, the clearance in [6] turned out to be 213 mL/min/kg. Besides, the Vd in [7] was determined as 6.4 L/kg. For the same compound, the half-life in data set [8] is 42 min. Besides, the MRT in data set [9] was determined as 30 min.
As to `CC(C)(N)C(=O)N[C@H](CCC(F)(F)c1ccccc1)c1nnnn1CCOC(=O)NCCCCO`, the Tmax in data set [10] was 1.6 h. In data set [11], this compound came in with a bioavailability of 26%. Also, in data set [12], the Vd was determined as 16 L/kg. The compound further had a Cmax in [13] of 166 nM. This compound displayed an MRT in [14] of 1.4 h. Further, the half-life in data set [15] is 144 min. In addition, the Activity in the data set with Rattus norvegicus came to 1934%. For the same compound, the figures for the AUC in data set [16] and in data set [17] were 0.901 µM·h and 0.239 µM·h, respectively. Besides, the clearance in [18] worked out at 183 mL/min/kg. Also, the EC50 in data set [19] is 0.27 nM.
In turn, `CC(C)(N)C(=O)N[C@H](CCC(F)(F)c1ccccc1)c1nnnn1CCC#N` came in with an EC50 in [19] of 0.9 nM.

The record behind these values is ChEMBL document CHEMBL1158152, “(D)-2-tert-Butoxycarbonylamino-5,5-difluoro-5-phenyl-pentanoic acid: synthesis and incorporation into the growth hormone secretagogues” (Bioorg Med Chem Lett, 2008).
